Test results: patent US20070238146A1, “Kinetic metabolic assay for antifungal susceptibility testing” (priority 2006, published 2007)

Assays:
Assay type in all cases: cell-based, Candida albicans
[1] = test system: planktonic C. albicans cells; assay: CFU assay of planktonic cells after AmB treatment; settings: exponential phase planktonic cells
Method: CFU assay. CFU were estimated for both AmB treated and untreated planktonic sample. 100 μl planktonic C. albicans cells in PBS were serially diluted in 2 ml cuvettes (catalog no. BTCUV, Biotrace Inc.). The serial dilution was 10-fold across each cuvette. The required number of serial dilutions per sample were judged based on trial and error. A volume of 100 μl from each serially diluted cuvette was spread as a separate lane on an agar plate. […] Plates were incubated at 37° C. for 24 hours. CFU were estimated from dilutions whose numbers fell in the range of 10 to 100 colonies per lane. The appropriate dilution factor was multiplied to estimate the final viable cell concentration for every sample.
AmB treatment. AmB was from Biosource International Inc. (Fungizone with 0.00205% sodium deoxycholate solubilizing agent). A standard broth dilution method was used to assess the AmB MlC of CA-1, with ATCC 24433 used as a reference strain (32). AmB treatment of planktonic cells and shear-removed biofilm was preformed in 1.5-ml centrifuge tubes. The tubes contained a total working volume of 450 μl. […] This enabled recording of absorbance data for the metabolic indicator in real time without perturbing the well contents. […]
(ii) Calculation of percent viability. Viability in terms of CFU was calculated by using the kinetic parameters estimated for each sample and the corresponding calibrations. […]

[2] = test system: C. albicans biofilm basal blastospores; assay: KMA for in situ biofilm susceptibility testing (alamarBlue, modified medium, t-threshold)
Method: Biofilm cultures. Biofilms were grown in a tubular flow cell (TF). Silicone tubing (Cole-Panmer; catalog no. EW-95802-08) with an inner diameter of 4.78 mm, an outer diameter of 6.35 mm, a wall of 0.79 mm, and a length of 60 cm constituted the biofilm-growing region of the TF. The source of growth medium for the TF was a 2-liter Erlenineyer flask. A bubble trap was placed between the Erlenmeyer flask and the TF to prevent passage of air bubbles during biofilm growth. Flow rates of 1.17 ml/min (shear rate, 109.5 s^−1) were maintained by a peristaltic pump coupled at the effluent end of the TF. The residence time for the volume of liquid contained in the tubular reactor portion of the flow system (20-cm length of tubing) was 3 min. This condition ensured that the contribution to the cell population in the TF from cells in the planktonic mode of growth (doubling time, approximately 80 min) was negligible. After sterilization by autoclaving, the entire setup was placed horizontally on a grilled shelf in an incubator at 37° C. The TF was filled with growth medium before being inoculated with cells. The inoculum was prepared from a 24-h planktonic culture at a concentration of 10^8 cells/ml in 0.1 M phosphate-buffered saline (PBS, pH 7) buffer. It was fed into the TF from the effluent end by reversing the direction of flow. Flow was then discontinued for 1 h. After the 1 -h inoculation period, flow was resumed for 36 h. At the end of this culture period, the section of tubing in which the biofilm grew was clamped at both ends and removed by cutting the tubing with a sterile blade. The liquid column was drained into a petri dish by moving the tubing to a vertical position and releasing the clamps. The tubing was then rinsed with PBS buffer equivalent to one tube volume. The fraction of biofilm collected in the petri dish by this procedure is referred to as the shear-removed biofilm. […]
AmB treatment. […] This enabled recording of absorbance data for the metabolic indicator in real time without perturbing the well contents. […]

[3] = test system: planktonic C. albicans cells; assay: kinetic metabolic assay (KMA, alamarBlue) of planktonic cells after 1 h AmB treatment
Method: Planktonic cultures. Cultures were grown aerobically in 250-ml Erlenmeyer flasks containing 100 ml growth medium. The flasks were placed in a shaker incubator at 37° C. and 160 rpm for the desired period of growth. C. albicans grew as budding yeast under these conditions. Exponential phase cells were harvested after a 5-h growth period and stationary-phase cells at 96 h.
AmB treatment. AmB was from Biosource International Inc. (Fungizone with 0.00205% sodium deoxycholate solubilizing agent). A standard broth dilution method was used to assess the AmB MlC of CA-1, with ATCC 24433 used as a reference strain (32). AmB treatment of planktonic cells and shear-removed biofilm was preformed in 1.5-ml centrifuge tubes. The tubes contained a total working volume of 450 μl. AmB dissolved in 200 μl of 0.1 M PBS (pH 7.0), and cells resuspended in 250 μl of PBS adjusted to an optical density of 0.05 (A660) were added to the 1.5-ml tube. After more than 10 preliminary experiments, the time between recovery of the shear-removed biofilm in the petri dish and exposure to AmB was reduced to approximately 5 min. The positive controls had no AmB, and the negative controls had no cells. For AmB treatment of the basal blastospore population, each sample consisted of a 0.5-cm long section of tubing cut from the TF. Each tubing sample was positioned in the 96-well plate (Corning Inc.; Costar 3370) such that its outer wall snugly fit along the wall of the well in the 96-well plate. This enabled recording of absorbance data for the metabolic indicator in real time without perturbing the well contents. The 0.5-cm tubing samples were randomly placed in the 96-well plate in order to randomize the distribution between treated samples and untreated controls. Solution (225 μl) containing AmB in 0.1 M PBS was added to wells to completely submerge the 0.5-cm tubing during the AmB treatment phase. Untreated samples were the positive controls. Three independent TF experiments were run, generating 24 samples per AmB concentration and 61 untreated controls for the basal blastospores. Sterile tubing was used as a negative control. In every experiment, a minimum of four negative controls were used. The AmB treatment period was 1 h across all cell populations. During AmB exposure, the 1.5-m1 tubes (containing either the planktonic or shear-removed populations) and 96 -well plates (containing the basal blastospores) were placed in a shaker incubator at 37° C. and 150 rpm. […]
Kinetic curves. Kinetic data of the reduction of metabolic indicators and turbidimetric changes were recorded for both AmB treated and untreated samples. […] The kinetic assay in the 96 well format was run for 24 h at 37° C. with continuous shaking in a Synergy-HT plate reader (Biotek Inc.). […]

C[C@@H]1[C@H](O)[C@@H](C)/C=C/C=C/C=C/C=C/C=C/C=C/C=C/[C@H](O[C@@H]2O[C@H](C)[C@@H](O)[C@H](N)[C@@H]2O)C[C@@H]2O[C@](O)(C[C@@H](O)C[C@@H](O)[C@H](O)CC[C@@H](O)C[C@@H](O)CC(=O)O[C@H]1C)C[C@H](O)[C@H]2C(=O)O [AmB, amphotericin B]
AmB concentration beyond which complete killing was observed [1]: > 1.77 µg/mL | activity of basal blastospores relative to other populations ([2]; AmB concentrations greater than or equal to 3.7 μg/ml, versus shear removed biofilm, stationary and exponential phase planktonic cells): clearly more active than the other three populations | AmB concentration up to which metabolic activity was exhibited ([2]; basal blastospore subpopulation in situ, highest tested concentration, 1 h AmB treatment): 28.26 µg/mL | loss of metabolic activity of basal blastospores relative to other samples ([2]; lower AmB concentrations (<1.77 μg/ml)): greater loss of metabolic activity than the other samples | AmB concentration beyond which complete killing is achieved ([3]; exponential phase planktonic cells, KMA, 1 h AmB treatment): > 1.77 µg/mL | AmB concentration up to which viability is detected ([3]; modified medium, exponential-phase cells, alamarBlue, t-threshold (FIG. 5)): 1.77 µg/mL | AmB concentration up to which cells survive ([3]; stationary phase planktonic cells, alamarBlue, t-threshold, 1 h AmB treatment (FIG. 6)): 3.55 µg/mL | AmB concentration up to which viability is detected (detection limit) ([3]; unmodified medium, exponential-phase cells, alamarBlue, t-threshold (FIG. 5)): 0.88 µg/mL
